Data from patent publication US20190032014A1, “USING MICROBIOTA METABOLITES TO DIFFERENTIATE NAÏVE T-CELLS AND RELATED METHODS TO INDUCE OR PREVENT INFLAMMATORY CONDITIONS” (THE TEXAS A&M UNIVERSITY SYSTEM, priority 2016, published 2019).
Entries after “also recorded” stand apart in the source; their conditions may differ.

How the values were obtained:
[1] = tested on: naïve T cells obtained from humans; assay: Skewing of naïve T cells obtained from humans; format: cell-based
[2] = tested on: TGF-β receptor / pSMAD2/3; assay: TGF-β receptor expression and SMAD2/3 activity; format: cell-based
Protocol: Indole and 5-HI were assessed for impact on TGF-β receptor expression and SMAD2/3 activity. […] Indole and 5-HI were also assessed for impact on IL-6 receptor levels and subsequent STAT3 activity.

[3] = target: T1, aryl hydrocarbon receptor (AhR) (Homo sapiens, UniProt P35869); conditions: intestinal epithelial cells; Jin et al. 2014; cited from earlier work
T1 sequence (P35869 11-848): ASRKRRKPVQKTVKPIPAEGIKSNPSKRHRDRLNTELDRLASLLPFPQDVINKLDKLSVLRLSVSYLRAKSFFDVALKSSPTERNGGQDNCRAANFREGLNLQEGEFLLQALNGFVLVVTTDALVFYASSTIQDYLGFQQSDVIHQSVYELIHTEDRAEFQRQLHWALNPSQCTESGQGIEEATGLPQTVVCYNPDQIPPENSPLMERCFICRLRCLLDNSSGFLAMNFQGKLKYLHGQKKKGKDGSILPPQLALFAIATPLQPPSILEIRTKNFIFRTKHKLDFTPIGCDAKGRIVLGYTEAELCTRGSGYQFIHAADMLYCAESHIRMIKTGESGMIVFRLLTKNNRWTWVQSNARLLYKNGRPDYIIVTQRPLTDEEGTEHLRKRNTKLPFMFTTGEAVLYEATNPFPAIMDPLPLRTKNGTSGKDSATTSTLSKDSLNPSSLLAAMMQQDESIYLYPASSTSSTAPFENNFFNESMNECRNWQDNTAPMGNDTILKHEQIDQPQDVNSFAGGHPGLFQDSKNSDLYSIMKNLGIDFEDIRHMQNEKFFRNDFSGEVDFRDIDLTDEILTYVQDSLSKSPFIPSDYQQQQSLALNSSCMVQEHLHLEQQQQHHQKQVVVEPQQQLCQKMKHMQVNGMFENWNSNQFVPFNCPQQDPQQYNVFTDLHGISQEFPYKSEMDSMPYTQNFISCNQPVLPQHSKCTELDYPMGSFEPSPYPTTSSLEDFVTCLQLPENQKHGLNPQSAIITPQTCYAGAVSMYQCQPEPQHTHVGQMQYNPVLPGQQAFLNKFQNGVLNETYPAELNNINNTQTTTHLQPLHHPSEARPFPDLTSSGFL

[4] = tested on: mTOR; assay: mTOR activation (% P-S6) in conditioned T cells; format: cell-based; conditions: matured conditioned T cells
Description: The mechanistic target of rapamycin (mTOR) is a core component in multiple protein complexes that have significant influence on various cellular processes including cell growth, differentiation, and even enteropathies in the intestine. Accordingly, the interaction of indole and 5-HI on mTor activation was investigated.

[5] = tested on: Th17 transfer colitis; assay: Th17 transfer colitis murine model; format: in vivo, Rag-null mice
Protocol: Finally, the presentation describes a study of the effects of an indole-induced iTreg skew on the course of colitis in a Th17 transfer colitis murine model. […] Briefly, naïve T-cells (CD4+CD25−) were cultured in vitro with cytokines to skew function towards a Th17 phenotype, in the presence of indole or 5-HI, or not. The skewed cultures were transferred to Rag-null mice (lack T- and B-lymphocytes); control mice received no T-cells. Mice were monitored for weight loss (as a measure of inflammation) over several weeks and assessed at indicated timepoints for T-cell phenotype.
The body weight of the mice was monitored from the time of cell transfer to the end point of day 49. […] Next, the Treg, Th17, and Th1 differentiation was assessed in cells obtained from the mesenteric lymph nodes (MLN) of mice administered directly with indole, 5-HI and control. These cells were determined/assayed by FACS for phenotype directly ex vivo from mice that were treated as in FIG. 28.

[6] = tested on: T cells of spleen and mesenteric lymph nodes; assay: In vivo acute T cell activation (αCD3) in spleen and MLN; design: species or system mice; conditions: administered with αCD3 at 0 and 48 hrs
Protocol: After 52 additional hours, the spleens were harvested and homogenized. Cells were plated, stimulated with PMA/lonomycin, stained for the indicated T cell markers, and subjected to FACS analysis. The graphs show the % IFN-γ+ CD4+ cells (FIG. 26A), the % IFN-γ+ CD4+ CD44^low cells (FIG. 26B), and the % IFN-γ+ CD4+ CD44^high cells (FIG. 26C) resulting from the various treatments. […] The graphs show the % IFN γ+ CD4+ cells (FIG. 27A), the % IFN γ+ CD4+ CD44low cells (FIG. 27B), and the % IFN γ+ CD4+ CD44high cells (FIG. 27C) resulting from the various treatments.
Fifteen μg of αCD3 (BioXcell clone 145-2C11) was administered via intra-peritoneal injection at 0 and 48 hours. […] At 52 hours, spleen and mesenteric lymph nodes were isolated and plated individually at a concentration of 1×10^6 cells/well with RPMI media supplemented with 2-mercaptoethanol, gentamicin, penicillin, and streptomycin+10% FCS (all from Life Technologies) in a 96-well round bottom plate (Falcon). Cells were immediately stimulated for 4 hours and stained. Specifically, for the last four hours of culture, cells were treated with golgi plug (BD), PMA and ionomycin (both from Sigma-Aldrich).

[7] = MLN, D15 and D45, by the end point

Compound: c1ccc2[nH]ccc2c1 [Indole, indole]
- skewing effects on Tregs and Th17 cells in human cells [1]: recapitulated on naïve T cells obtained from humans
- % pSMAD2/3+ cells ([2]; TGF-β induced, vs 5-HI or DMF control): higher
- % TGF-β receptor+ cells ([2]; vs DMF control): significantly increase
- AhR agonist/antagonist activity [3]: acts as both an agonist and antagonist
- % P-S6 (mTOR activation) [4]: significantly reduced
- Treg differentiation in vivo (% FoxP3+ T cells and FoxP3+ levels, MLN) ([5]; MLN, D15 and D45): induced early differentiation of Treg differentiation in vivo
- Th1 differentiation in vivo (% INF-γ+ T cells, Th1/Treg balance, MLN) [5, 7]: suppresses Th1 differentiation in vivo
- Th17 differentiation in vivo (% IL-17+ T cells, Th17/Treg balance, MLN) [5, 7]: suppresses Th17 differentiation in vivo
- weight change (% from starting weight) ([5]; mice receiving conditioned Th17 T cells, around day 43, end point day 49): increase in body weight
- Th17 transfer colitis in vivo (overall) ([5]; mouse, in vivo): inhibits the Th17 transfer colitis in vivo
- Treg differentiation in vivo (MLN) ([6]; mesenteric lymph nodes): synergizes with butyrate for the induction of Treg cells in vivo; also recorded: can augment Treg development in vivo when administered to the subject directly
- Th1 differentiation in vivo (% IFN-γ+ CD4+ cells, spleen) ([6]; spleen): suppresses butyrate induction of Th1 cells in vivo
